Molecular target: T1, recombinant full-length USP7 (Homo sapiens, UniProt Q93009)
T1 construct: A 25 μl reaction volume containing recombinant full-length USP7 (62 pM)
Experiment: USP7-mediated ubiquitin-rhodamine cleavage assay
Format: biochemical
Details: recombinant full-length USP7 62 pM; ubiquitin-rhodamine 100 nM; 30-minute incubation with compound, 1 hour reaction at room temperature; read-out: Potency: USP7 IC50
Procedure, shortened: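 Enzyme 62 pM; HEPES pH 7.3/150 mM NaCl/1 mM TCEP/125 μg/ml BSA; 1% DMSO; 30 min cpd preinc RT; Ub-rhodamine 100 nM, 1 h RT, dark; acetic acid stop; fluorescence; IC50 4-param fit.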

T1 sequence (Q93009 whole entry): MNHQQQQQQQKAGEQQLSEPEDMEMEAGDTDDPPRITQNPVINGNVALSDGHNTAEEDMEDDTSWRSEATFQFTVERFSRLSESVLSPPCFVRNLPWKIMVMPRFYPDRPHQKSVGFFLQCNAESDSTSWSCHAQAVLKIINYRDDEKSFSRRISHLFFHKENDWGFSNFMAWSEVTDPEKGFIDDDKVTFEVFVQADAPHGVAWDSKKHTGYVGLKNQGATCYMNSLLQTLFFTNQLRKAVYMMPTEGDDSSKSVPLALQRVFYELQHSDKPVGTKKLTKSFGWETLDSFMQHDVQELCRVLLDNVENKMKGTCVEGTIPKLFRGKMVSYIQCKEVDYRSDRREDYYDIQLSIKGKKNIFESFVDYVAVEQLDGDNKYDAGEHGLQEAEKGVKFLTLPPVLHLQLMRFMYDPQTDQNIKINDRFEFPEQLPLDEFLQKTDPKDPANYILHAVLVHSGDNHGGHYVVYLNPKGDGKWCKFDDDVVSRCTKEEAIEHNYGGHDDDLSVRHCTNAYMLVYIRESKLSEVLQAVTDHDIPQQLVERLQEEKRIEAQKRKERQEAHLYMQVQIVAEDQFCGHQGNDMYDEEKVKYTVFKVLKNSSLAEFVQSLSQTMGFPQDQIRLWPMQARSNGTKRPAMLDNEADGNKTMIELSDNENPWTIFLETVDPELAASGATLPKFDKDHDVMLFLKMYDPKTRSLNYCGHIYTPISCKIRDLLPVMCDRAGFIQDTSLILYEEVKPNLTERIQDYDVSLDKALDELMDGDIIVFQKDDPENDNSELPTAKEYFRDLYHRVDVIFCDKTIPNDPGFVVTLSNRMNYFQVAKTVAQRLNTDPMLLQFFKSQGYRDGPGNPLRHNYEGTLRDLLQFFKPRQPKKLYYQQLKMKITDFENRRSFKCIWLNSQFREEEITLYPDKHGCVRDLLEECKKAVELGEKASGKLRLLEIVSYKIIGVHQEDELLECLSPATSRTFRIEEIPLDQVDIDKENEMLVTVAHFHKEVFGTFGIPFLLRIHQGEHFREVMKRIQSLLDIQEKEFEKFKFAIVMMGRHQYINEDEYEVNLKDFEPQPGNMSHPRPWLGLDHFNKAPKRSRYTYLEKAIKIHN

IC50 [nM]	Structure (SMILES)
< 1000	Cc1cc(Cl)cc(-c2ncnc3cc(CN4C(=O)CCC4=O)sc23)c1OC1CCNCC1 [Example 177, 1-((4-(5-Chloro-3-methyl-2-(piperidin-4-yloxy)phenyl)thieno[3,2-d]pyrimidin-6-yl)methyl)pyrrolidine-2,5-dione]
> 30000	N#Cc1cc(Cl)cc(-c2ccnc3cc(CO)sc23)c1O[C@H]1CCCNC1 [Example 239, (S)-5-Chloro-3-(2-(hydroxymethyl)thieno[3,2-b]pyridin-7-yl)-2-(piperidin-3-yloxy)benzonitrile]
1000 to 10000	Cc1cc(Cl)cc(-c2ccnc3cc(CO)sc23)c1O[C@@H]1CNC[C@@H]1F [Example 57, (7-(5-Chloro-2-(((3R,4S)-4-fluoropyrrolidin-3-yl)oxy)-3-methylphenyl)thieno[3,2-b]pyridin-2-yl)methanol]
1000 to 10000	Cc1cc(Cl)cc(-c2ccnc3cc(CN4C(=O)CCC4=O)sc23)c1OC1CCN(C2COC2)CC1 [Example 207, 1-((7-(5-Chloro-3-methyl-2-((1-(oxetan-3-yl)piperidin-4-yl)oxy)phenyl)thieno[3,2-b]pyridin-2-yl)methyl)pyrrolidine-2,5-dione]
< 1000	CCC(O)c1cc2ncnc(-c3cc(C#N)cc(C)c3O[C@@H]3CNC[C@@H]3F)c2s1 (stereo partly drawn) [Example 95, 4-(((3R,4S)-4-Fluoropyrrolidin-3-yl)oxy)-3-(6-(1-hydroxypropyl)thieno[3,2-d]pyrimidin-4-yl)-5-methylbenzonitrile]
> 30000	Cc1cc(Cl)cc(-c2ccnc3ccsc23)c1OC1CCNC1=O (stereo not shown) [Example 79, 3-(4-chloro-2-methyl-6-(thieno[3,2-b]pyridin-7-yl)phenoxy)pyrrolidin-2-one]
1000 to 10000	Cc1cc(Cl)cc(-c2ccnc3cc(CN4C(=O)CN(C)C4=O)sc23)c1O[C@@H]1CNC[C@@H]1F [Example 144, 3-((7-(5-Chloro-2-(((3R,4S)-4-fluoropyrrolidin-3-yl)oxy)-3-methylphenyl)thieno[3,2-b]pyridin-2-yl)methyl)-1-methylimidazolidine-2,4-dione]
1000 to 10000	Cc1cc(C#N)cc(-c2ccnc3cc(CO)sc23)c1OCC1(C)CNC1 [Example 43, 3-(2-(Hydroxymethyl)thieno[3,2-b]pyridin-7-yl)-5-methyl-4-((3-methylazetidin-3-yl)methoxy)benzonitrile]
> 30000	Cc1cc(Cl)cc(-c2ccnc3cc(CO)sc23)c1OCCC1CNC1 [Example 30, (7-(2-(2-(Azetidin-3-yl)ethoxy)-5-chloro-3-methylphenyl)thieno[3,2-b]pyridin-2-yl)methanol]
< 1000	Cc1cc(Cl)cc(-c2ccnc3cc(CN4C(=O)CCC4=O)sc23)c1O[C@H]1CCCCNC1 [Example 268, (S)-1-((7-(2-(azepan-3-yloxy)-5-chloro-3-methylphenyl)thieno[3,2-b]pyridin-2-yl)methyl)pyrrolidine-2,5-dione]
< 1000	CC[C@@H](c1cc2nccc(-c3cc(Cl)cc(C)c3O[C@@H]3CNC[C@@H]3F)c2s1)N1C(=O)CCC1=O [Example 137, 1-((S)-1-(7-(5-Chloro-2-(((3R,4S)-4-fluoropyrrolidin-3-yl)oxy)-3-methylphenyl)thieno[3,2-b]pyridin-2-yl)propyl)pyrrolidine-2,5-dione]
10000 to 30000	Cc1cc(Cl)cc(-c2ccnc3cc(CO)sc23)c1O[C@@H]1CC[C@H](N)C1 [Example 89, (7-(2-(((1R,3S)-3-Aminocyclopentyl)oxy)-5-chloro-3-methylphenyl)thieno[3,2-b]pyridin-2-yl)methanol]
< 1000	Cc1cc(Cl)cc(-c2ccnc3cc(CN4C(=O)C5C(C4=O)C5(C)C)sc23)c1O[C@@H]1CNCC[C@@H]1C (stereo partly drawn) [Example 340, 3-[[7-[5-chloro-3-methyl-2-[[(3S,4S)-4-methyl-3-piperidyl]oxy]phenyl]thieno[3,2-b]pyridin-2-yl]methyl]-6,6-dimethyl-3-azabicyclo[3.1.0]hexane-2,4-dione]
> 30000	Cc1cc(Cl)cc(-c2ccnc3cc(CO)sc23)c1O[C@@H]1CCC[C@H]1N(C)C [Example 92, (7-(5-Chloro-2-(((1R,2R)-2-(dimethylamino)cyclopentyl)oxy)-3-methylphenyl)thieno[3,2-b]pyridin-2-yl)methanol]

Structure (SMILES)	IC50 [nM]
Cc1cc(Cl)cc(-c2ccnc3cc(CN4C(=O)C5CC5C4=O)sc23)c1OC1CN2CCC1CC2 (stereo not shown) [Example 319, 3-[[7-(5-chloro-3-methyl-2-quinuclidin-3-yloxy-phenyl)thieno[3,2-b]pyridin-2-yl]methyl]-3-azabicyclo[3.1.0]hexane-2,4-dione; 2,2,2-trifluoroacetic acid]	< 1000

Same assay, conditions: recombinant full-length USP7 62 pM; ubiquitin-rhodamine 100 nM; 30-minute incubation, 1 hour reaction at room temperature; read-out: Potency (USP7 IC50)

IC50 [nM]	Structure (SMILES)
< 1000	Cc1cc(Cl)cc(-c2ccnc3cc(Cn4c(=O)ccn(CC(F)(F)F)c4=O)sc23)c1OC1COC1 [Example 671, 3-[[7-[5-chloro-3-methyl-2-(oxetan-3-yloxy)phenyl]thieno[3,2-b]pyridin-2-yl]methyl]-1-(2,2,2-trifluoroethyl)pyrimidine-2,4-dione]
< 1000	Cc1cc(Cl)cc(-c2ccnc3cc(CN4C(=O)CN(CC(F)(F)F)C4=O)sc23)c1O[C@H]1CCCNC1 [Example 693, 3-[[7-[5-chloro-3-methyl-2-[[(3S)-3-piperidyl]oxy]phenyl]thieno[3,2-b]pyridin-2-yl]methyl]-1-(2,2,2-trifluoroethyl)imidazolidine-2,4-dione; 2,2,2-trifluoroacetic acid]

Same assay, conditions: recombinant full-length USP7 62 pM; ubiquitin-rhodamine 100 nM; 30-minute pre-incubation, 1 hour reaction at room temperature; read-out: Potency (USP7 IC50)

Structure (SMILES)	IC50 [nM]
Cc1cc(Cl)cc(-c2ncnc3cc(Cn4c(=O)ccn(C(C)C)c4=O)sc23)c1O[C@H]1CCCN(C)C1 [Example 512, 3-[[4-[5-chloro-3-methyl-2-[[(3S)-1-methyl-3-piperidyl]oxy]phenyl]thieno[3,2-d]pyrimidin-6-yl]methyl]-1-isopropyl-pyrimidine-2,4-dione]	< 1000
Cc1cc(Cl)cc(-c2ccnc3cc(Cn4c(=O)[nH]cc(C(F)(F)F)c4=O)sc23)c1O[C@H]1CCCNC1 [Example 571, 3-[[7-[5-chloro-3-methyl-2-[[(3S)-3-piperidyl]oxy]phenyl]thieno[3,2-b]pyridin-2-yl]methyl]-5-(trifluoromethyl)-1H-pyrimidine-2,4-dione]	< 1000
Cc1cc(Cl)cc(-c2ncnc3cc(Cn4c(=O)ccn(CC(F)(F)F)c4=O)sc23)c1O[C@@H]1CCN(C)C[C@@H]1C [Example 528, 3-[[4-[5-chloro-2-[[(3S,4R)-1,3-dimethyl-4-piperidyl]oxy]-3-methyl-phenyl]thieno[3,2-d]pyrimidin-6-yl]methyl]-1-(2,2,2-trifluoroethyl)pyrimidine-2,4-dione]	< 1000

More lines, now with the values ahead:

IC50 [nM]	Structure (SMILES)
< 1000	Cc1cc(Cl)cc(-c2ccnc3cc(Cn4c(=O)ccn(CC(F)(F)F)c4=O)sc23)c1O[C@@H]1CCCN[C@H]1C [Example 622, 3-[[7-[5-chloro-3-methyl-2-[[(2S,3R)-2-methyl-3-piperidyl]oxy]phenyl]thieno[3,2-b]pyridin-2-yl]methyl]-1-(2,2,2-trifluoroethyl)pyrimidine-2,4-dione; 2,2,2-trifluoroacetic acid]
< 1000	Cc1cc(Cl)cc(-c2ccnc3cc(Cn4c(=O)ccn(C)c4=O)sc23)c1O[C@@H]1CCN(C(C)C)C[C@@H]1C [Example 488, 3-[[7-[5-chloro-2-[[(3S,4R)-1-isopropyl-3-methyl-4-piperidyl]oxy]-3-methyl-phenyl]thieno[3,2-b]pyridin-2-yl]methyl]-1-methyl-pyrimidine-2,4-dione]
< 1000	Cc1cc(Cl)cc(-c2ccnc3cc(Cn4c(=O)ccn(CC(F)(F)F)c4=O)sc23)c1OC1(C)CCNCC1 [Example 618, 3-[[7-[5-chloro-3-methyl-2-[(4-methyl-4-piperidyl)oxy]phenyl]thieno[3,2-b]pyridin-2-yl]methyl]-1-(2,2,2-trifluoroethyl)pyrimidine-2,4-dione]
< 1000	Cc1cc(Cl)cc(-c2ccnc3cc(Cn4c(=O)ccn(CC(F)(F)F)c4=O)sc23)c1O[C@@H]1CNC[C@H](F)C1 [Example 623, 3-[[7-[5-chloro-2-[[(3S,5R)-5-fluoro-3-piperidyl]oxy]-3-methyl-phenyl]thieno[3,2-b]pyridin-2-yl]methyl]-1-(2,2,2-trifluoroethyl)pyrimidine-2,4-dione; 2,2,2-trifluoroacetic acid]
< 1000	Cc1cc(Cl)cc(-c2ccnc3cc(Cn4c(=O)ccn(C)c4=O)sc23)c1OCC1(C(F)F)CNC1 [Example 533, 3-[[7-[5-chloro-2-[[3-(difluoromethyl)azetidin-3-yl]methoxy]-3-methyl-phenyl]thieno[3,2-b]pyridin-2-yl]methyl]-1-methyl-pyrimidine-2,4-dione]
< 1000	Cc1cc(Cl)cc(-c2ccnc3cc(Cn4c(=O)ccn(C)c4=O)sc23)c1O[C@@H]1CCNC[C@]1(C)F [Example 544, 3-[[7-[5-chloro-2-[[(3S,4R)-3-fluoro-3-methyl-4-piperidyl]oxy]-3-methyl-phenyl]thieno[3,2-b]pyridin-2-yl]methyl]-1-methyl-pyrimidine-2,4-dione; 2,2,2-trifluoroacetic acid]
< 1000	Cc1cc(Cl)cc(-c2ccnc3cc(Cn4c(=O)ccn(C)c4=O)sc23)c1O[C@H]1CNCC[C@H]1C [Example 588, 3-[[7-[5-chloro-3-methyl-2-[[(3R,4R)-4-methyl-3-piperidyl]oxy]phenyl]thieno[3,2-b]pyridin-2-yl]methyl]-1-methyl-pyrimidine-2,4-dione; 2,2,2-trifluoroacetic acid]
< 1000	Cc1cc(Cl)cc(-c2ccnc3cc(Cn4c(=O)ccn(C)c4=O)sc23)c1O[C@@H]1CN[C@H](C(=O)O)C1 [Example 486, (2S,4S)-4-[4-chloro-2-methyl-6-[2-[(3-methyl-2,6-dioxo-pyrimidin-1-yl)methyl]thieno[3,2-b]pyridin-7-yl]phenoxy]pyrrolidine-2-carboxylic acid]
